Results as given in patent US20220211695A1, “MORPHINE-INDUCED RESPIRATORY DEPRESSION: BEHAVIORAL, PHRENIC AND BRAINSTEM RESPIRATORY NEURONAL EVIDENCE” (GEORGIA STATE UNIVERSITY RESEARCH FOUNDATION, INC., priority 2019, published 2022).

How the values were obtained:
[1] = tested on: rostral ventral respiratory group (rVRG) neurons; experiment: Extracellular recording of firing activity of respiratory neurons in the ventral respiratory group; type: in vivo, Sprague Dawley rats
Procedure: Firing activity of respiratory neurons was recorded extracellularly in the ventral respiratory group.

phrenic discharges [2] = experiment: Phrenic discharge recording in spontaneously breathing rats after decerebration
Sprague Dawley rats = experiment: Plethysmography of breathing after repetitive (chronic) morphine administrations, with or without cloperastine
From the text: A major adverse effect of the chronic use of opioid drugs is respiratory depression causing a […] in the United States. Via μ-Opioid receptors (MOR), respiratory neurons in the brainstem are known to be the targets, especially those in the ventral respiratory column (VRC). However, how the VRC neurons react to chronic opioid drugs remains elusive. To understand how chronic morphine exposures affect brainstem respiratory motor output, we performed these studies in Sprague Dawley rats, using repetitive morphine administrations. […] Since the MOR is coupled to GIRK channels, we applied Cloperastine, a GIRK channel blocker and a commercial OTC drug, to the rats before or after chronic morphine.
Disclosed herein are methods for treating chronic morphine exposures and how this exposure affects brainstem respiratory motor output. Disclosed herein are studies using Sprague Dawley rats, during which repetitive morphine administrations were conducted.

phrenic discharges [3] = settings: rat, in vivo
[4] = 50 mg/kg morphine followed by 30 mg/kg cloperastine

Clc1ccc(C(OCCN2CCCCC2)c2ccccc2)cc1 (stereo not drawn) [cloperastine]
firing activity of rVRG neurons (FIG. 31) [1, 4]: return to near normal firing activity
phrenic discharge pattern (FIG. 19) (phrenic discharges [2]; [4]): erratic phrenic activity has nearly completely subsided
erratic breathing (FIG. 8) (Sprague Dawley rats; 30 mg/kg cloperastine injected after 10 mg/kg morphine): reduction in erratic breathing
erratic breathing (FIG. 11) (Sprague Dawley rats; 30 mg/kg cloperastine injected first, then 10 mg/kg morphine): reduction in erratic breathing
effect on chronic morphine-induced central hypoventilation (Sprague Dawley rats; cloperastine applied before or after chronic morphine): reverses hypoventilation mainly by suppression the irregularity of breathing amplitude and frequency
time at which a significant change in normalized minute ventilation occurs (FIG. 16) (Sprague Dawley rats; cloperastine given at 20 minutes post morphine): about 45 minutes
effect on morphine's effects on breathing frequency (FIG. 13) (Sprague Dawley rats; cloperastine injection after morphine, normalized time course): reducing the effects of morphine of breathing frequency
Te and Ti duration (FIG. 24) (phrenic discharges [3]): nearly the same as the control
Te/Ti ratio (FIG. 25) (phrenic discharges [3]): nearly identical to control
breathing frequency (FIG. 26) (phrenic discharges [3]): nearly identical to control

CN1CC[C@]23c4c5ccc(O)c4O[C@H]2[C@@H](O)C=C[C@H]3[C@H]1C5 [morphine]
E-I phase-spanning neurons in the ventral respiratory group ([1]; chronic morphine versus saline injection): A large number of E-I phase-spanning neurons were observed
ectopic phrenic activity during expiration (phrenic discharges [2]; after chronic morphine exposures): Ectopic phrenic activity during expiration was seen
effect on breathing (minute ventilation, variation of amplitude and frequency) (Sprague Dawley rats; 10 mg/kg morphine): causes central hypoventilation with decreased breathing minute ventilation, increased variation of both breathing amplitude & frequency
breathing depression after repetitive morphine administrations (Sprague Dawley rats; chronic morphine, Sprague Dawley rats): severe breathing depression was found in these rats
time for the breathing effects to reach a plateau level (Sprague Dawley rats; repetitive morphine administrations): 3 to 4 days
duration of minute ventilation suppression (Sprague Dawley rats; same dose morphine following the chronic treatments): 3 to 4 h
suppression of minute ventilation (Sprague Dawley rats; same dose morphine following the chronic treatments, n=16 rats, plethysmography): 55.2%±4.1
variations in tidal volume and breathing frequency (Sprague Dawley rats; same dose morphine following the chronic treatments, plethysmography): severe variations in tidal volume and breathing frequency
